What was measured:
Assay type in all cases: cell-based
P2X purinoceptor 1 = P2X purinoceptor 1 (Homo sapiens, UniProt P51575); experiment: Antagonist activity at non-desensitizing human P2X1 receptor ( P2X2/P2X1 chimera) expressed in human 1321N1 cells assessed as inhibition of ATP-induced calcium influx pre-incubated for 30 mins before ATP stimulation by FLIPR assay relative to control
[1] = target: T1, P2X purinoceptor 1 (Homo sapiens) (UniProt P51575); experiment: Antagonist activity at non-desensitizing human P2X1 receptor ( P2X2/P2X1 chimera) expressed in human 1321N1 cells assessed as inhibition of ATP-induced calcium influx at 10 uM pre-incubated for 30 mins before ATP stimulation by FLIPR assay relative to control
T1 sequence (whole entry): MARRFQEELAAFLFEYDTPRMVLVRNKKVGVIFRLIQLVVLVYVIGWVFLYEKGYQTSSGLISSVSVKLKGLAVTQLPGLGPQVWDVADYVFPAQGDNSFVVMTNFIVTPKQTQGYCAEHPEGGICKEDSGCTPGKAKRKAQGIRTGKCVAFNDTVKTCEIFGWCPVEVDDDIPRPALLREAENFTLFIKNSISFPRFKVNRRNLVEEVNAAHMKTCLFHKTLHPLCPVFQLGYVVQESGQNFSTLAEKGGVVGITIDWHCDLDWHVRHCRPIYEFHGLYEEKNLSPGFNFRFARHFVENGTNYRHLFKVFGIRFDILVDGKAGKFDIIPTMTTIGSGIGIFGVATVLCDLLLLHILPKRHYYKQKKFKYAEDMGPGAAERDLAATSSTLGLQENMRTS

[2] = target: T2, P2X purinoceptor 3 (Homo sapiens) (UniProt P56373); experiment: Antagonist activity at human P2X3 receptor expressed in human 1321N1 cells assessed as inhibition of ATP-induced cytosolic calcium influx at 10 uM preincubated for 30 mins followed by ATP addition by Fluo-4 AM dye-based fluorescence assay relative to control
T2 sequence (whole entry): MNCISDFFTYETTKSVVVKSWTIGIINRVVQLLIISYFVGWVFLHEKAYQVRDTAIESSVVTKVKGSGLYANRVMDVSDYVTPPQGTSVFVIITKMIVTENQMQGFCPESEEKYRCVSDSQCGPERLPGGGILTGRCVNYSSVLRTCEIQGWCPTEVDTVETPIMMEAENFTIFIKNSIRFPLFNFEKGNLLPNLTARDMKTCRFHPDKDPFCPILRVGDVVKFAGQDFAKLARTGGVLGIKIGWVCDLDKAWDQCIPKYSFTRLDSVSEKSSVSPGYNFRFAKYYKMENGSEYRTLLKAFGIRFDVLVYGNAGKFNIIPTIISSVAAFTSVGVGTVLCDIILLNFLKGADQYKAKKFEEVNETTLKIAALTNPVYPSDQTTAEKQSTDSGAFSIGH

P2X purinoceptor 4 = target: T3, P2X purinoceptor 4 (Homo sapiens, UniProt Q99571); experiment: Antagonist activity at human P2X4 receptor expressed in human 1321N1 cells assessed as inhibition of ATP-induced cytosolic calcium influx preincubated for 30 mins followed by ATP addition by Fluo-4 AM dye-based fluorescence assay
T3 sequence (Q99571 whole entry): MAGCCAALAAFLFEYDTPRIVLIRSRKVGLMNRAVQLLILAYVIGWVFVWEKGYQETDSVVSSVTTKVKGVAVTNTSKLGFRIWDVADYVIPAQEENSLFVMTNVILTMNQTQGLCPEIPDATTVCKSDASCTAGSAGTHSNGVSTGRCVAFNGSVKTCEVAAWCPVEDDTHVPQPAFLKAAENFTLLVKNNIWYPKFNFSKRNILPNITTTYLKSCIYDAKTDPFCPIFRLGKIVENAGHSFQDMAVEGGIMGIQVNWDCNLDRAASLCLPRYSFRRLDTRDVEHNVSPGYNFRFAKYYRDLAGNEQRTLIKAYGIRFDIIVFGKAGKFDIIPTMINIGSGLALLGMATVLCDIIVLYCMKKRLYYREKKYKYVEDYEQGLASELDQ

P2X purinoceptor 7 = target: T4, P2X purinoceptor 7 (Homo sapiens, UniProt Q99572); experiment: Antagonist activity at human P2X7 receptor expressed in human 1321N1 cells assessed as inhibition of ATP-induced cytosolic calcium influx preincubated for 30 mins followed by ATP addition by Fluo-4 AM dye-based fluorescence assay
T4 sequence (Q99572 whole entry): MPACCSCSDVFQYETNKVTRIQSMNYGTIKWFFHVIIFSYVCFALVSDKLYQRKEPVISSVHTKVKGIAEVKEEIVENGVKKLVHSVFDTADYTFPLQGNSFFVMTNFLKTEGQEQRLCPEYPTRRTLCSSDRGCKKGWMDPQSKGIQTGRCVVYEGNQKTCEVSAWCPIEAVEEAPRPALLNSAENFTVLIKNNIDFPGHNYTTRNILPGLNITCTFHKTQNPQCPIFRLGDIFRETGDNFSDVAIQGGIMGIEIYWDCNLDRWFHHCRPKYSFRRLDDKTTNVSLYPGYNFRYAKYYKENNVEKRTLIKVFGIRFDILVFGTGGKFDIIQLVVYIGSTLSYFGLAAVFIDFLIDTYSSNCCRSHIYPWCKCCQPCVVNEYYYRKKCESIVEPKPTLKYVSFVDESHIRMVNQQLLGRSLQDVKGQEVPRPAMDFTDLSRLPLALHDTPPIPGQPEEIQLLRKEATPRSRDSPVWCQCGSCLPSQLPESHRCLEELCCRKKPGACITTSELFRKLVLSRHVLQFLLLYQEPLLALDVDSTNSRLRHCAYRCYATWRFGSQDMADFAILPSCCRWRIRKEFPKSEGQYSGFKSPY

P2X purinoceptor 3 = target: T5, P2X purinoceptor 3 (Homo sapiens, UniProt P56373); experiment: Antagonist activity at human P2X3 receptor expressed in human 1321N1 cells assessed as inhibition of ATP-induced cytosolic calcium influx preincubated for 30 mins followed by ATP addition by Fluo-4 AM dye-based fluorescence assay
T5 sequence (P56373 whole entry): T2 sequence (whole entry)

[3] = target: T6, P2X purinoceptor 2 (Homo sapiens) (UniProt Q9UBL9); experiment: Antagonist activity at human P2X2 receptor expressed in human 1321N1 cells assessed as inhibition of ATP-induced cytosolic calcium influx at 10 uM preincubated for 30 mins followed by ATP addition by Fluo-4 AM dye-based fluorescence assay relative to control
T6 sequence (whole entry): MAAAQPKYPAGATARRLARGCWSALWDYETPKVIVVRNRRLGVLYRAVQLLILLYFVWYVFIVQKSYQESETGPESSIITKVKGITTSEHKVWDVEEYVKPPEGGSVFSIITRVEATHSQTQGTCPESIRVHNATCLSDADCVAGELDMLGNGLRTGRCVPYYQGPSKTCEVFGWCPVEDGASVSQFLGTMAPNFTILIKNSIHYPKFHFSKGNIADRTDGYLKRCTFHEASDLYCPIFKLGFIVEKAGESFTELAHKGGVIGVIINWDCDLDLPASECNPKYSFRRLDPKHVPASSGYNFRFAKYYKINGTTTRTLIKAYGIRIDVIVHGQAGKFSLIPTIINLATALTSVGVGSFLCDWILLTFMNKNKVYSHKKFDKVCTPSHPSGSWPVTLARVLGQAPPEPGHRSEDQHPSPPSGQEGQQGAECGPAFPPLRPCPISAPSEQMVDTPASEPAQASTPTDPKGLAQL

P2X purinoceptor 2 = target: T7, P2X purinoceptor 2 (Homo sapiens, UniProt Q9UBL9); experiment: Antagonist activity at human P2X2 receptor expressed in human 1321N1 cells assessed as inhibition of ATP-induced cytosolic calcium influx preincubated for 30 mins followed by ATP addition by Fluo-4 AM dye-based fluorescence assay
T7 sequence (Q9UBL9 whole entry): T6 sequence (whole entry)

Compound | IC50 (P2X purinoceptor 1) [µM] | inhibition [1] [%] | other results
CN(C(=O)c1cc(Cl)ccc1O)c1cc(C(F)(F)F)cc(C(F)(F)F)c1 | 4.06 | 88 | –
Cc1ccc(O)c(C(=O)Nc2cc(C(F)(F)F)cc(C(F)(F)F)c2)c1 | 0.236 | 91 | –
O=C(Nc1cccc(C(F)(F)F)c1)c1cc(Cl)ccc1O | 0.091 | 75 | inhibition [2]: 4%; IC50 (P2X purinoceptor 4): 0.537 µM; IC50 (P2X purinoceptor 7): 6.32 µM; IC50 (P2X purinoceptor 3): > 10 µM; inhibition [3]: 5%; IC50 (P2X purinoceptor 2): > 10 µM
O=C(Nc1cc(C(F)(F)F)cc(C(F)(F)F)c1)c1ccccc1CO | > 10 | 37 | –
O=C(Nc1cc(C(F)(F)F)cc(C(F)(F)F)c1)c1cc(F)ccc1O | 1.66 | 96 | –
O=C(Nc1cc(C(F)(F)F)cc(C(F)(F)F)c1)c1cc([N+](=O)[O-])ccc1O | 2.53 | 99 | –
O=C(Nc1cc(O)cc(O)c1)c1cc(Cl)ccc1O | > 10 | 4 | –
COc1ccc(O)c(C(=O)Nc2cc(C(F)(F)F)cc(C(F)(F)F)c2)c1 | 0.755 | 91 | –
COc1cc(NC(=O)c2cc(Cl)ccc2O)cc(OC)c1 | 0.915 | 80 | –
O=C(Nc1cc(C(F)(F)F)cc(C(F)(F)F)c1)c1cnccc1O | > 10 | 31 | –
O=C(Nc1cc(C(F)(F)F)cc(C(F)(F)F)c1)c1ccc2ccccc2c1O | 0.341 | – | IC50 (P2X purinoceptor 4): 0.729 µM; IC50 (P2X purinoceptor 7): 0.797 µM; IC50 (P2X purinoceptor 2): > 10 µM
O=C(Nc1ccc(F)cc1)c1cc(Cl)ccc1O | 0.907 | 93 | –
CC(C)(C)c1cccc(NC(=O)c2cc(Cl)ccc2O)c1 | 0.567 | 100 | –
Cc1cccc(C(=O)Nc2cc(C(F)(F)F)cc(C(F)(F)F)c2)c1O | 0.655 | 102 | –
O=C(Nc1cc(C(F)(F)F)cc(C(F)(F)F)c1)c1cc(O)ccc1O | 3.41 | 109 | –
O=C(Nc1cc(C(F)(F)F)cc(C(F)(F)F)c1)c1ccncc1O | 5.25 | 60 | –
O=C(Nc1ccc2cc[nH]c2c1)c1ccccc1O | > 10 | 11 | –
Cc1cc(C)cc(NC(=O)c2cc(Cl)ccc2O)c1 | 0.323 | 64 | –
C#Cc1cccc(NC(=O)c2cc(Cl)ccc2O)c1 | 1.34 | 60 | –
O=C(NCc1cc(C(F)(F)F)cc(C(F)(F)F)c1)c1cc(Cl)ccc1O | 1.53 | 111 | –
O=C(Nc1cccc(S(=O)(=O)C(F)(F)F)c1)c1cc(Cl)ccc1O | 0.335 | 83 | –
O=C(Nc1cc(C(F)(F)F)cc(C(F)(F)F)c1)c1cccc(C(F)(F)F)c1 | 7.18 | 63 | –

Compound | IC50 (P2X purinoceptor 1) [µM] | inhibition [1] [%] | other results
O=C(Nc1cc(Cl)ccc1O)c1cc(C(F)(F)F)cc(C(F)(F)F)c1 | ≥ 10 | 48 | –
O=C(Nc1cc(C(F)(F)F)cc(C(F)(F)F)c1)c1c(O)cccc1O | 8 | 75 | –
O=C(CNc1cc(C(F)(F)F)cc(C(F)(F)F)c1)c1cc(Cl)ccc1O | 1.79 | 104 | –
NS(=O)(=O)c1cccc(NC(=O)c2ccccc2O)c1 | > 10 | 21 | –
O=C(Nc1ccccc1C(F)(F)F)c1cc(Cl)ccc1O | > 10 | 28 | –
O=C(Nc1cc(C(F)(F)F)cc(C(F)(F)F)c1)c1cccc(Cl)c1 | 139 | 82 | –
N#Cc1ccc(NC(=O)c2cc(Cl)ccc2O)cc1 | > 10 | 38 | –
O=C(Nc1cc(C(F)(F)F)cc(C(F)(F)F)c1)c1cccc([N+](=O)[O-])c1O | 0.869 | 112 | –
O=C(Nc1cc(C(F)(F)F)cc(C(F)(F)F)c1)c1cccc(O)c1 | 4.91 | 100 | –
O=C(Nc1ccc2ncccc2c1)c1ccccc1O | > 10 | 28 | –
O=C(Nc1cc([N+](=O)[O-])cc([N+](=O)[O-])c1)c1cc(Cl)ccc1O | 4.35 | 62 | –
O=C(Nc1cc(C(F)(F)F)cc(C(F)(F)F)c1)c1ccccc1[N+](=O)[O-] | 8.6 | 61 | –
O=C(Nc1ccc([N+](=O)[O-])cc1)c1cc(Cl)ccc1O | – | 43 | –
CN1CCN(C(=O)Nc2cc(C(F)(F)F)cc(C(F)(F)F)c2)C1=O | > 10 | 0 | –
O=C(Nc1ccc(Cl)cc1)c1cc(Cl)ccc1O | 0.199 | 55 | –
O=C(Nc1cc(C(F)(F)F)cc(C(F)(F)F)c1)c1ccccc1Cl | 539 | 100 | –
O=C(Nc1cccc([N+](=O)[O-])c1)c1cc(Cl)ccc1O | 0.172 | 65 | –
Oc1ccc(Cl)cc1CNc1cc(C(F)(F)F)cc(C(F)(F)F)c1 | 3.82 | 122 | –
O=C(Nc1cccnc1)c1ccccc1O | > 10 | 3 | –
O=C(Nc1cccc(C(F)(F)F)c1)c1ccccc1O [SALFLUVERINE] | 1.3 | 75 | –
O=C(Nc1cc(C(F)(F)F)cc(C(F)(F)F)c1)c1cccnc1O | > 10 | 9 | –
Nc1ccccc1C(=O)Nc1cc(C(F)(F)F)cc(C(F)(F)F)c1 | 9.93 | 67 | –
